For experiment [1] the following is noted: in vivo; cited from earlier work.
The conditions of experiment [2]: used within 72 hours of UPI; cited from earlier work.
The subject of experiment [3] is women requesting emergency contraception after unprotected intercourse. In words: Meta-analysis of Phase II and Phase III emergency contraception studies: pregnancy rate by WHO BMI class. Type of experiment: in vivo. The note with it: for Odds Ratio [95% CI]: ulipristal acetate vs levonorgestrel. How it is done:
The effect of BMI in pooled phase III studies was assessed by comparing pregnancy rates among sub-groups of the study populations according to WHO weight classes. Pregnancy rates increased starting from BMI>25, and for women with a BMI>30, the 95% CI of the observed pregnancy rate overlapped with the expected pregnancy rate. […] This Phase II, prospective, multicenter, randomized, double-blind study was performed to compare the efficacy of a single 50 mg dose of ulipristal acetate (unmicronized in gelatine capsule) with two 0.75 mg doses of levonorgestrel used as an emergency postcoital contraceptive within 72 hours of unprotected intercourse. The study was carried out in seven sites in seven different states in the United States. Women (aged ≧18 years old) not using hormonal contraception and who requested emergency contraception within 72 hours (3 days) after unprotected coitus defined by lack of contraceptive use, condom breakage or other barrier contraceptive method failure were included. Subjects were required to have a history of regular menstrual cycles (mean length of 24-42 days with intra-individual variation of ±5 days). At least one normal menstrual cycle (two menses) was required after delivery, abortion, or discontinuation of hormonal contraception. Subjects were excluded from the study if they were pregnant at screening or enrollment (assessed by a high-sensitivity urine pregnancy test), pregnant or breastfeeding within the 2 months before screening, using an intra-uterine device (IUD) or female or male sterilization as a contraceptive method, uncertain about the date of the last menstrual period (±3 days), had been nauseated or vomited in the 2 weeks before screening, had used oral glucocorticoid replacement therapy in the year before the screening, or were currently enrolled in any other investigational trial. Each woman returned for a follow-up visit 5 to 7 days after the expected onset of their next menstrual period and a high-sensitivity urine pregnancy test was performed. The primary objective was to compare the efficacy, as determined by pregnancy prevention, of 50 mg ulipristal acetate and levonorgestrel used as an emergency postcoital contraceptive within 72 hours of unprotected intercourse. […] This was a prospective, single-blind (subject and sponsor blind, investigator not blind), randomized, multicenter, 2-arm parallel comparative study designed to evaluate the efficacy, safety and tolerability of a single dose of ulipristal acetate (30 mg) compared to levonorgestrel (1.5 mg) administered for EC within 120 hours after unprotected intercourse. It was performed in 10 centers in Europe and 25 centers in the US. Women (aged ≧16 years), with regular menstrual cycles (between 24 and 35 days and intra-individual variations less than or equal to 5 days), who presented for EC within 120 hours after unprotected intercourse at a participating study site and who met the inclusion/exclusion criteria were enrolled into the study after they signed informed consent form. Subjects were excluded from the study in case of ongoing pregnancy or breast-feeding or current use of hormonal contraception or IUD. The study medication (ulipristal acetate 30 mg or levonorgestrel 1.5 mg) was administered according to a random allocation procedure generated electronically. Treatment was administered orally immediately after all eligibility criteria (including negative urine pregnancy test) had been verified. […] The primary objective of the study was to provide evidence that the pregnancy rate observed after taking ulipristal acetate (30 mg) within 72 hours of unprotected intercourse is lower than the expected pregnancy rate in the absence of EC. […]

The mark [4] stands for this setting: BMI class (WHO) Normal weight (18.5 to 24.99), N=2087.
The mark [5] stands for this setting: BMI class (WHO) Obese grade I (30 to 34.99), N=285.
Setting [6] is: BMI class (WHO) Obese grade II (35 to 39.99), N=107.
The mark [7] stands for this setting: BMI class (WHO) Obese grade III (≧40), N=77.
Where [8] appears, read: BMI class (WHO) Overweight (25 to 29.99), N=744.
Where [9] appears, read: BMI class (WHO) Underweight (<18.5), N=145.
[10] abbreviates: grouped BMI class Obese II and more, N=184.
The mark [11] stands for this setting: grouped BMI class Overweight & Obese I, N=1029.
The mark [12] stands for this setting: grouped BMI class Underweight & Normal, N=2232.

Structures are written as SMILES.

As to `CC(=O)O[C@]1(C(C)=O)CC[C@H]2[C@@H]3CCC4=CC(=O)CCC4=C3[C@@H](c3ccc(N(C)C)cc3)C[C@@]21C` [Ulipristal acetate, 17α-acetoxy-11β-[4-N,N-dimethylamino-phenyl)-19-norpregna-4,9-diene-3,20-dione], the effect on ovulation entry in experiment [1] is on record as “inhibits or delays ovulation in a dose-dependent fashion”. Also, in experiment [2], the “efficacy for preventing pregnancy versus levonorgestrel” value is on record as “as efficacious as levonorgestrel”. Further, the Pregnancy rate in experiment [3] (setting [4]) was 1.16%; in experiment [3] (setting [5]), 1.47%; in experiment [3] (setting [6]), 3.64%; in experiment [3] (setting [7]), 5.56%; in experiment [3] (setting [8]), 1.06%; in experiment [3] (setting [9]), 0%. In addition, the figures for the “Pregnancy rate” value in experiment [3] (setting [10]), in experiment [3] (setting [11]) and in experiment [3] (setting [12]) were 4.40%, 1.17% and 1.08%, respectively. The “efficacy by BMI group” value was “decreased” in experiment [3] (obese grade II (BMI 35 and above) subjects); “remained constant” in experiment [3] (underweight and normal (BMI below 25) and overweight and obese grade I (BMI 25-34.99) subjects). Further, the “Odds Ratio [95% CI]” value amounted to 1.02 in experiment [3] (Obese II and more, CI [0.23, 4.44], NS); 0.31 in experiment [3] (Overweight & Obese I, CI [0.11, 0.74], p = 0.0073); 0.81 in experiment [3] (Underweight & Normal, CI [0.37, 1.73], NS). Also, the “risk of pregnancy divided by (ulipristal acetate versus levonorgestrel)” value in experiment [3] (women overweight or with grade I obesity (BMI 25-34.99), p=0.0073) is recorded as 3. Further, in experiment [3] (women with a BMI>25), the efficacy versus levonorgestrel result is recorded as “significantly more effective than levonorgestrel”.

Turning to `C#C[C@]1(O)CC[C@H]2[C@@H]3CCC4=CC(=O)CC[C@@H]4[C@H]3CC[C@@]21CC` [Levonorgestrel, levonorgestrel], the Pregnancy rate is 1.33% in experiment [3] (setting [4]); 6.71% in experiment [3] (setting [5]); 3.85% in experiment [3] (setting [6]); 4.88% in experiment [3] (setting [7]); 2.45% in experiment [3] (setting [8]); 1.43% in experiment [3] (setting [9]). The “Pregnancy rate” value worked out at 4.30% in experiment [3] (setting [10]), 3.68% in experiment [3] (setting [11]) and 1.34% in experiment [3] (setting [12]).
